Data from ChEMBL document CHEMBL4689842, “EUbOPEN Chemogenomics Library wave 1” (2021).

What was measured:
Assay type in all cases: toxicity, cell-based
HEK-293T = assay: Incucyte cell viability with HEK293T; conditions: human, 10 µM, compound concentration 10 uM
Fibroblast = assay: Incucyte cell viability with human fibroblast; conditions: 10 µM, compound concentration 10 uM
U2OS = assay: Incucyte cell viability with U2OS; conditions: human, 10 µM, compound concentration 10 uM
[1] = 0 h, replicate number 1, timepoint 0 hours
[2] = 0 h, replicate number 2, timepoint 0 hours
[3] = 6 h, replicate number 1, timepoint 6 hours
[4] = 6 h, replicate number 2, timepoint 6 hours
[5] = 12 h, replicate number 1, timepoint 12 hours
[6] = 18 h, replicate number 1, timepoint 18 hours
[7] = 24 h, replicate number 1, timepoint 24 hours
[8] = 24 h, replicate number 2, timepoint 24 hours
[9] = 12 h, replicate number 2, timepoint 12 hours
[10] = 18 h, replicate number 2, timepoint 18 hours
Further: filed as whole numbers so only -1 and 0 and 1 occur.

SMILES | Growth Rate (HEK-293T; [1]) | Growth Rate (HEK-293T; [2]) | Growth Rate (HEK-293T; [3]) | Growth Rate (HEK-293T; [4]) | Growth Rate (HEK-293T; [5]) | Growth Rate (HEK-293T; [6]) | Growth Rate (HEK-293T; [7]) | Growth Rate (Fibroblast; [1]) | Growth Rate (Fibroblast; [3]) | Growth Rate (Fibroblast; [5]) | Growth Rate (Fibroblast; [6]) | Growth Rate (Fibroblast; [7]) | Growth Rate (U2OS; [1]) | Growth Rate (U2OS; [4]) | Growth Rate (U2OS; [5]) | Growth Rate (U2OS; [9]) | Growth Rate (U2OS; [6]) | Growth Rate (U2OS; [10]) | Growth Rate (U2OS; [7]) | Growth Rate (Fibroblast; [4]) | other results
CSc1ccc(C(=O)N[C@@H]2CCCC[C@@H]2NC(=O)CNC(=O)c2cc(C(F)(F)F)ccc2NC(=O)NC(C)C)cc1 | 1 | 0 | 0 | 1 | 0 | 0 | 0 | 0 | 1 | 1 | 1 | 0 | 0 | 0 | 1 | 0 | 0 | 1 | 0 |  | Growth Rate (Fibroblast; [8]): 1; Growth Rate (U2OS; [8]): 1
CNC(=NCCSCc1csc(N=C(N)N)n1)NC#N [TIOTIDINE] | 1 | 0 | 0 |  | 1 | 0 | 0 | 0 | 1 | 0 | 0 | 0 | 0 | 0 | 1 | 0 | 0 | 1 | 1 | 0 | Growth Rate (HEK-293T; [9]): 0
CC(=O)Nc1c(C(C)=O)c(=O)n(C)c2nc(-c3ccc(Cl)cc3Cl)c(-c3ccc(Cl)cc3)cc12 [NAPHTHYRIDINONE] | 0 |  | 0 | 1 | 0 | 0 | 0 | 0 | 1 | 0 | 0 | 0 |  | 1 | 0 |  | 0 | 1 | 0 | 0 | Growth Rate (U2OS; [2]): 0; Growth Rate (U2OS; [8]): 1
Cc1c(OCc2cccc(-c3ccc(C(=O)O)cc3)c2)cc2c(c1C)C(=O)C(C1CCCC1)C2 (stereo not drawn) | 0 |  | 0 |  | 0 | 0 | 0 | 0 | 0 | 0 | 0 | 0 | 0 |  | 1 |  | 1 |  | 1 |  | Growth Rate (HEK-293T; [8]): 1
Br.Br.N=C(N)SCCc1c[nH]cn1 | 1 | 0 | 1 |  | 1 | 1 | 1 | 0 | 0 | 0 | 1 | 1 | 0 |  | 1 | 0 | 0 | 1 | 0 |  | Growth Rate (HEK-293T; [10]): 0; Growth Rate (HEK-293T; [8]): 0; Growth Rate (Fibroblast; [10]): 0; Growth Rate (Fibroblast; [8]): 0; Growth Rate (U2OS; [3]): 0
CNCCC(Oc1ccc(C(F)(F)F)cc1)c1ccccc1.Cl (stereo not drawn) [FLUOXETINE HYDROCHLORIDE] |  | 0 | 0 | 1 | 0 | 0 | 0 | 0 | 1 | 0 | 1 | 1 |  | 1 |  | 1 | 1 |  | 1 | 0 | Growth Rate (HEK-293T; [9]): 1; Growth Rate (Fibroblast; [10]): 0; Growth Rate (Fibroblast; [8]): 0
C[C@@H]1CCN(C(=O)CC#N)C[C@@H]1N(C)c1ncnc2[nH]ccc12.O=C(O)CC(O)(CC(=O)O)C(=O)O [TOFACITINIB CITRATE] | 1 | 0 | 0 |  | 0 | 1 | 1 | 0 |  | 1 | 1 | 1 | 0 |  | 0 |  | 0 |  | 0 |  | Growth Rate (HEK-293T; [9]): 1; Growth Rate (U2OS; [3]): 0
N#Cc1c(O)nc(SCc2cccc(F)c2F)nc1C1CC1 | 0 |  | 1 |  | 1 | 1 | 1 | 0 | 1 | 1 | 1 | 1 | 0 |  | 1 |  | 1 |  | 1 |  | Growth Rate (HEK-293T; [8]): 0
COc1ccc(Cn2ccc3ccc(C(=O)NO)cc32)cc1 | 0 | 1 |  |  |  |  |  | 0 |  |  | 1 | 1 | 0 |  | 1 | 0 | 1 |  | 0 | 1 | Growth Rate (Fibroblast; [9]): 1; Growth Rate (Fibroblast; [10]): 0; Growth Rate (U2OS; [2]): 1; Growth Rate (U2OS; [3]): 0
O=C(O)C[C@H]1CCc2c1[nH]c1ccc(OCc3ccc(C4CCCC4)c(C(F)(F)F)c3)cc21 [ETRASIMOD] | 0 |  | 1 |  | 0 | 0 | 0 | 0 | 1 | 1 | 1 | 0 | 0 | 0 | 0 | 1 | 1 |  | 1 | 0 | Growth Rate (HEK-293T; [9]): 1; Growth Rate (HEK-293T; [10]): 1; Growth Rate (Fibroblast; [2]): 1; Growth Rate (Fibroblast; [8]): 1; Growth Rate (U2OS; [2]): 1
CS(=O)(=O)c1cccc(NC(=O)N(Cc2ccc(C(=O)Nc3nn[nH]n3)cc2)c2ccc(C3CCCCC3)cc2)c1 | 1 | 0 | 1 | 0 | 1 | 1 | 1 | 0 | 0 | 0 | 0 | 1 | 0 | 1 |  | 1 | 1 |  | 1 |  | Growth Rate (HEK-293T; [9]): 0; Growth Rate (HEK-293T; [10]): 0; Growth Rate (HEK-293T; [8]): 0
CC(=O)C1=C(C)N(c2cccc(C(F)(F)F)c2)C(=O)N[C@H]1c1ccc(C#N)nc1 [BAY-677] | 0 |  |  |  |  | 1 | 1 | 0 | 0 | 0 | 0 | 0 | 0 | 0 | 1 | 0 | 1 | 0 | 0 | 1 | Growth Rate (U2OS; [2]): 1; Growth Rate (U2OS; [3]): 1
CCC(=O)Nc1cccc(Oc2nc(Nc3ccc(N4CCN(C)CC4)cc3OC)ncc2Cl)c1 |  |  | 0 |  | 0 | 0 | 0 |  |  | 0 | 0 | 0 | 0 | 1 | 0 |  | 0 | 1 | 0 |  | Growth Rate (U2OS; [3]): 0
COc1ccc2cc(OCC3(C(=O)O)CN(C(=O)c4ccc(F)cc4)C3)ccc2c1 [PF-04418948] | 0 |  | 1 | 0 | 1 | 1 | 1 | 0 | 0 | 0 | 0 | 0 | 0 | 0 | 1 | 0 | 1 | 0 | 1 | 1 | Growth Rate (HEK-293T; [10]): 0; Growth Rate (Fibroblast; [10]): 1; Growth Rate (Fibroblast; [8]): 1; Growth Rate (U2OS; [8]): 0
O=C(Nc1cnc(Oc2ccc(F)cc2)nc1)N1CCc2ncccc2[C@@H]1c1ccc(F)cc1 [BAY-899] | 0 |  | 0 | 1 | 0 | 0 | 0 | 0 | 1 | 1 | 1 | 1 | 0 |  | 1 |  | 1 |  | 0 |  | Growth Rate (U2OS; [8]): 1
O=C(c1ccc(F)cc1)N1CC(COc2ccc(Br)cc2)(C(=O)O)C1 [PF-04475866] | 0 |  | 1 | 0 | 1 | 0 | 1 | 0 |  |  |  | 1 | 1 |  | 1 |  | 0 | 1 | 1 |  | Growth Rate (HEK-293T; [9]): 0; Growth Rate (HEK-293T; [8]): 0; Growth Rate (Fibroblast; [10]): 1; Growth Rate (U2OS; [2]): 0; Growth Rate (U2OS; [3]): 1
